Ends that are not written are not given here.
Experiment: In vitro release of QLNWD, dialysis bag method in enzyme-free SGF/SIF
Type: in vitro ADME
Settings: 37 °C, 120 rpm
Description: The release profile of QLNWD in NPs was evaluated according to a published dialysis method. A 2 mL aliquot of QLNWD (1 mg/mL) nanoparticle solution was introduced into a presoaked dialysis bag (molecular weight cutoff of 3500 Da). The bag was immersed in 20 mL of simulated gastric fluid (SGF, enzyme-free), which had been preheated at 37 °C for 30 min and adjusted to pH 2. The entire system was incubated at 37 °C under continuous agitation at 120 rpm. After 2 h, the pH was adjusted to 7.0, and 20 mL of simulated intestinal fluid (SIF, enzyme-free), also preheated at 37 °C for 30 min and adjusted to pH 7.0, was added to the system. At predetermined intervals, 1 mL of the release medium was sampled and immediately replenished with an equal volume of fresh SGF/SIF. Samples without QLNWD served as the blank control, and the cumulative release was determined as follows:(2) Cumulative release (%)=(V0Cn+Ve∑1n−1Cn−1)/total QLNWD content×100 where V0 refers to the total volume of simulated gastric or intestinal fluid, Cn refers to the concentration of QLNWD at the nth time, and Ve refers to the volume of each sample.

## QLNWD [QLNWD, Gln-Leu-Asn-Trp-Asp]
12 h: 2 h enzyme-free SGF pH 2, then enzyme-free SIF pH 7.0, dialysis bag 3500 Da
  Cumulative release of QLNWD: 79.1%
Initial 2 h in enzyme-free SGF pH 2, dialysis bag 3500 Da, QLNWD 1 mg/mL
  Cumulative release of QLNWD: 38.1%
